# Source: ChEMBL document CHEMBL6153037, “Developing dual-responsive quinolinium prodrugs of 8-hydroxyquinoline by harnessing the dual chelating sites” (Eur J Med Chem, 2025)
# The source made the active and inactive calls. The rule behind the calls is not given here.
# Experiments:
# [1] = tested on: MCF-10A; test: Induction of apoptosis in human MCF-10A cells assessed as necrotic cells at 0.8 uM incubated for 24 hrs by Annexin V-FITC/PI staining based flow cytometry (reference value: 1.38 %); assay type: toxicity, cell-based
# [2] = tested on: MDA-MB-231; test: Anti-migration activity in human MDA-MB-231 cells at 0.8 uM incubated for 48 hrs by wound healing assay (reference value: 65.2 %); assay type: functional
# [3] = tested on: MDA-MB-231; test: Induction of apoptosis in human MDA-MB-231 cells assessed as necrotic cells at 0.8 uM incubated for 24 hrs by Annexin V-FITC/PI staining based flow cytometry (reference value: 0.59 %); assay type: functional
# [4] = tested on: MDA-MB-231; test: Induction of apoptosis in human MDA-MB-231 cells assessed as late apoptotic cells incubated for 24 hrs by Annexin V-FITC/PI staining based flow cytometry (reference value: 2.4 %); assay type: functional
# [5] = tested on: MCF-10A; test: Inhibition of mitochondrial membrane potential in human MCF-10A cells assessed as increase in green fluorescence at 0.8 uM incubated for 24 hrs by JC-1 dye based analysis; assay type: toxicity, cell-based
# [6] = Induction of apoptosis in human MCF-10A cells assessed as viable cells at 0.8 uM incubated for 24 hrs by Annexin V-FITC/PI staining based flow cytometry (reference value: 92.5 %); assay type: toxicity, cell-based; settings: read-out: Activity
# [7] = tested on: MDA-MB-231; test: Inhibition of mitochondrial membrane potential in human MDA-MB-231 cells assessed as increase in green fluorescence at 0.8 uM incubated for 24 hrs by JC-1 dye based analysis; assay type: functional, cell-based
# [8] = Toxicity in BALB/c nude mouse xenografted with human MDA-MB-231 cells assessed as body weight change at 20 mg/kg, iv administered every two days for 21 days; assay type: organism-based; settings: in vivo, 504 h, time 21 day
# [9] = tested on: MDA-MB-231; test: Induction of apoptosis in human MDA-MB-231 cells assessed as early apoptotic cells incubated for 24 hrs by Annexin V-FITC/PI staining based flow cytometry (reference value: 1.94 %); assay type: functional
# [10] = tested on: MCF-10A; test: Induction of apoptosis in human MCF-10A cells assessed as early apoptotic cells at 0.8 uM incubated for 24 hrs by Annexin V-FITC/PI staining based flow cytometry (reference value: 2.96 %); assay type: toxicity, cell-based
# [11] = tested on: MDA-MB-231; test: Induction of apoptosis in human MDA-MB-231 cells assessed as viable cells at 0.8 uM incubated for 24 hrs by Annexin V-FITC/PI staining based flow cytometry (reference value: 86.2 %); assay type: functional; settings: read-out: Activity
# [12] = tested on: MDA-MB-231; test: Induction of cell cycle arrest in human MDA-MB-231 cells assessed as accumulation at G0/G1 phase at 0.8 uM by PI staining based flow cytometry (reference value: 64.6 %); assay type: functional
# [13] = tested on: MDA-MB-231; test: Induction of apoptosis in human MDA-MB-231 cells assessed as late apoptotic cells at 0.8 uM incubated for 24 hrs by Annexin V-FITC/PI staining based flow cytometry (reference value: 5.81 %); assay type: functional
# [14] = tested on: MDA-MB-231; test: Anti-migration activity in human MDA-MB-231 cells at 0.8 uM incubated for 24 hrs by wound healing assay (reference value: 45.4 %); assay type: functional
# [15] = tested on: MDA-MB-231; test: Induction of cell cycle arrest in human MDA-MB-231 cells assessed as accumulation at G0/G1 phase in presence of UV by PI staining based flow cytometry (reference value: 43.25 %); assay type: functional
# [16] = tested on: MDA-MB-231; test: Antitumor activity against human MDA-MB-231 cells assessed as sphere-forming efficiency incubated for 6 hrs followed by medium replacement without compound measured after 6 days by microscopic analysis (reference value: 1.07 %); assay type: functional
# [17] = tested on: MDA-MB-231; test: Induction of apoptosis in human MDA-MB-231 cells assessed as early apoptotic cells at 0.8 uM incubated for 24 hrs by Annexin V-FITC/PI staining based flow cytometry (reference value: 7.39 %); assay type: functional
# [18] = tested on: MCF-10A; test: Induction of apoptosis in human MCF-10A cells assessed as late apoptotic cells at 0.8 uM incubated for 24 hrs by Annexin V-FITC/PI staining based flow cytometry (reference value: 3.13 %); assay type: toxicity, cell-based
# [19] = tested on: MDA-MB-231; test: Inhibition of mitochondrial membrane potential in human MDA-MB-231 cells incubated for 24 hrs in presence of UV by JC-1 dye based analysis (reference value: 5.51 %); assay type: functional
# [20] = tested on: MDA-MB-231; test: Induction of apoptosis in human MDA-MB-231 cells assessed as viable cells incubated for 24 hrs by Annexin V-FITC/PI staining based flow cytometry (reference value: 92.06 %); assay type: functional
# [21] = tested on: MDA-MB-231; test: Induction of apoptosis in human MDA-MB-231 cells assessed as necrotic cells incubated for 24 hrs by Annexin V-FITC/PI staining based flow cytometry (reference value: 3.6 %); assay type: functional
# [22] = tested on: MDA-MB-231; test: Cytotoxicity against human MDA-MB-231 cells incubated for 12 hrs by MTT assay; assay type: functional, cell-based; settings: MDA-MB-231, 12 h
# [23] = tested on: A549; test: Cytotoxicity against human A549 cells in presence of Cu2+ by MTT assay; assay type: functional, cell-based
# [24] = tested on: MDA-MB-231; test: Cytotoxicity against human MDA-MB-231 cells in presence of Cu2+ by MTT assay; assay type: functional, cell-based
compound,measurement,setting,value
Oc1cccc2cccnc12 [OXYQUINOLINE],Activity,[1],3.39%
same,Activity,[2],5.6%
same,Activity,[3],0.88%
same,Activity,[4],20.48%
same,Activity,[5],Toxic
same,"viability at 24 h, 0.8 µM",[6],8.98%
same,inhibition,[7],Active
same,Activity,[8],Non-toxic
same,Activity,[9],33.76%
same,Activity,[10],63.2%
same,viability at 0.8 µM,[11],3.03%
same,Activity,[12],78.2%
same,Activity,[13],15.6%
same,Activity,[14],3.8%
same,Activity,[15],61.23%
same,Activity,[16],0.19%
same,Activity,[17],80.5%
same,Activity,[18],24.4%
same,inhibition (INH),[19],46.91%
same,Activity,[20],44.1%
same,Activity,[21],2.66%
O=C(CCc1ccc(O)cc1)c1c(O)cc(O)cc1O[C@@H]1O[C@H](CO)[C@@H](O)[C@H](O)[C@H]1O [PHLORIZIN],IC50,[22],26.2 µM
OC[C@H]1O[C@@H](Oc2cccc3cccnc23)[C@H](O)[C@@H](O)[C@@H]1O,IC50,[23],5.56 µM
same,IC50,[24],5.56 µM
